Experimental data reported in PubChem BioAssay (NCI).
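Growth conditions: 96-well plates. Treatment: test compound, 48 hours, 5 concentrations. Analysis: linear interpolation between bracketing concentrations; unreached endpoints set to highest concentration. Abbreviation: GI50, concentration required for 50% inhibition of growth. The concentration for full growth arrest is given as TGI.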

Assays:
Assay in all cases: growth of human tumour cells (NCI), 48 h
[1] = tested on: HT29 colon
[2] = tested on: LOX IMVI melanoma
[3] = tested on: M14 melanoma
[4] = tested on: RPMI-8226 leukemia
[5] = tested on: U251 CNS
[6] = tested on: A549 NSCLC
[7] = tested on: NCI/ADR-RES ovarian
[8] = tested on: KM12 colon
[9] = tested on: ACHN renal
[10] = tested on: SW-620 colon

Row | Compound | GI50 [1] [µM] | TGI [1] [µM] | GI50 [2] [µM] | TGI [2] [µM] | GI50 [3] [µM] | TGI [3] [µM] | GI50 [4] [µM] | TGI [4] [µM] | GI50 [5] [µM] | TGI [5] [µM] | GI50 [6] [µM] | TGI [6] [µM] | GI50 [7] [µM] | TGI [7] [µM] | GI50 [8] [µM] | TGI [8] [µM] | GI50 [9] [µM] | TGI [9] [µM] | GI50 [10] [µM] | TGI [10] [µM]
1 | O=C1OC(=O)C2C1C1(c3ccccc3)C(c3ccccc3)=C(c3ccccc3)C2(c2ccccc2)S1=O (stereo not given) | > 100 | > 100 | > 100 | > 100 | > 100 | > 100 | 53.1 | > 100 | > 100 | > 100 | > 100 | > 100 | > 100 | > 100 | > 100 | > 100 | > 100 | > 100 | > 100 | > 100
2 | O=C1CCC2(C=C(Br)C(=O)C(Br)=C2)O1 | 2.89 | 7.82 | 2.53 | 7.53 | 11.8 | 24.7 | 10.7 | 46 | 14.7 | 28.9 | 24.5 | 67.3 | 16.2 | 37.3 | 17.4 | 31.3 | 1.78 | 3.19 | 1.81 | 3.54
3 | CCN(CC)CCCCCCCNc1c2ccc(Cl)cc2nc2ccc(OC)cc12 | 0.203 | 0.604 | 0.275 | 1.17 | 1.34 | 2.77 | 0.337 | 1.3 | 0.706 | 1.93 | 0.664 | 2.69 | 1.03 | 4.07 | 0.649 | 2.17 | 0.829 | 4.93 | 0.376 | 1.64
4 | COc1cc(/C=C/C(=O)c2ccc(Cl)cc2)ccc1OS(=O)(=O)c1ccc(C)cc1 | 2.15 | 4.73 | 1.93 | 3.67 | 6.35 | 23.6 | 2.1 | 4.77 | 2.18 | 5.38 | 18.4 | > 100 | 9.38 | 37.7 | 3.63 | 13.8 | 9.68 | 22.2 | 2.21 | 6.01
5 | Cc1cc(S(=O)(=O)Nc2nnc(-c3ccccc3)c(-c3ccccc3)n2)c(SCc2ccccc2)cc1Cl | 22.4 | 51.7 | 26.2 | 50.2 | 20.7 | 42.1 | 11.5 | 52.8 | 21.7 | 50.1 | 27.7 | > 100 | 32.8 | 90.3 | 18.5 | 43.1 | 17.6 | 32.6 | 20.6 | 44.8
6 | CC[N+](CC)(CC)CCCn1c2c(c3ccccc3c1=O)C(=O)c1ccccc1-2 | 6.3 | > 100 | 4.63 | > 100 | 3.1 | 12.1 | 5.2 | > 100 | 4.77 | > 100 | 6.27 | 35.8 | 6.5 | 27.2 | 4.74 | > 100 | 3.07 | 26.8 | 4.24 | > 100
7 | CCN(CC)CCOc1ccc(/C=C2\CC3C4CC=C5C[C@@H](N6CCCC6)CC[C@]5(C)C4CC[C@]3(C)[C@H]2O)cc1OC (stereo not given in full) | 2.39 | > 100 | 1.92 | 5.28 | 1.92 | 4.23 | 2.24 | 6.34 | 3.08 | 20.5 | 7.91 | > 100 | 13.3 | 47.5 | 2.67 | 11.9 | 5.94 | 26.2 | 0.624 | 7.38
8 | CN(C)c1ccc2c3c(c(=O)oc2c1)CCC3 |  | > 100 |  | > 100 |  | > 100 |  | > 100 |  | > 100 |  | > 100 |  | > 100 |  | > 100 |  | > 100 |  | > 100
9 | COc1ccc(/C=C\c2cc(OC)c(OC)c(OC)c2)cc1OCC(=O)Nc1nc2ccc(C(F)(F)F)cc2s1 | 14.9 | > 100 | 4.01 | > 100 | 3.59 | > 100 | 5.48 | > 100 | 3.67 | > 100 | 4.46 | > 100 | 2.12 | 5.8 | 3.14 | 11.5 | 4.83 | > 100 | 4.65 | > 100
10 | O=C(Nc1ncc(Cc2ccccc2Cl)s1)c1ccc2c(c1)OCCO2 | 0.616 | > 48.5 | 0.583 | > 100 | 0.246 | 14.5 | 0.479 | > 100 | 0.4 | > 51.6 | 0.466 | > 100 | 0.322 | 22.2 | 0.322 | > 35.6 | 0.776 | > 65.1 | 0.358 | > 100
